Laboratory results reported in the supplement of paper PMC12317010.
Structures can show the parent of a compound that is named as a salt.

Experiment: collision cross section in nitrogen (drift tube, single-field); higher = larger gas-phase ion size
[1] = ion type: [M+H], ion source: ESI, ion mode: Positive
[2] = ion type: [M-H], ion source: ESI, ion mode: Negative
[3] = ion type: [M+H], ion source: APCI, ion mode: Positive
[4] = ion type: [M+Na], ion source: ESI, ion mode: Positive
[5] = ion type: [M+], ion source: APCI, ion mode: Positive
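Note: chemical standards at 10 µM analysed by drift tube IMS-QTOF MS in about 3.95 torr nitrogen, mean of duplicate injections differing ≤1%, mass error below 10 ppm.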

Row | Structure (SMILES) | collision cross section in nitrogen [1] [Å²] | collision cross section in nitrogen [2] [Å²] | collision cross section in nitrogen [3] [Å²] | collision cross section in nitrogen [4] [Å²] | collision cross section in nitrogen [5] [Å²]
1 | C[C@]12CCC(=O)C=C1CC[C@@H]1[C@@H]2CC[C@@]2(C)[C@H]1CC[C@]2(C)O [17-Methyltestosterone] | 177.6 |  |  |  | 
2 | C#C[C@]1(O)CC[C@H]2[C@@H]3CCc4cc(O)ccc4[C@H]3CC[C@@]21C [17alpha-Ethinylestradiol] |  | 182.3 |  |  | 
3 | CC(=O)[C@@]1(O)CC[C@H]2[C@@H]3CCC4=CC(=O)CC[C@]4(C)[C@H]3CC[C@@]21C [17alpha-Hydroxyprogesterone] |  | 184.4 |  |  | 
4 | C[C@]12C=CC3=C4CCC(=O)C=C4CC[C@H]3[C@@H]1CC[C@@H]2O [17beta-Trenbolone] | 166.4 | 168.7 | 166.2 | 192.3 | 
5 | C[C@]12CC[C@H]3[C@@H](CCC4=CC(=O)CC[C@@]43C)[C@@H]1CC[C@@H]2C(=O)CO [21-Hydroxyprogesterone] | 185.7 | 186.5 |  |  | 
6 | C/C=C/C=C/CO [(2E,4E)-Hexa-2,4-dien-1-ol] |  |  |  |  | 117.4
7 | CNC[C@H](O)[C@@H](O)[C@H](O)[C@H](O)CO [(2R,3R,4R,5S)-6-(Methylamino)hexane-1,2,3,4,5-pentol] | 141.3 | 140.4 | 141 | 147.7 | 
8 | CC(Cc1ccc(C(C)(C)C)cc1)CN1C[C@@H](C)O[C@@H](C)C1 (stereo partly drawn) [(2R,6S)-Fenpropimorph] | 173.5 |  | 173.1 |  | 
9 | CC1(C)CCC[C@]2(C)[C@H]3CC(=O)O[C@]3(C)CC[C@@H]12 [(3aR)-(+)-Sclareolide] |  |  |  | 181.5 | 
10 | Nc1ccc([As](=O)(O)O)cc1 [(4-Aminophenyl)arsonic acid] | 130.9 | 139 |  | 144.9 | 
11 | CCCCC[C@H](O)CC(=O)CCc1ccc(O)c(OC)c1 [(6)-Gingerol] |  | 169.5 |  | 180.3 | 
12 | CCCCCC[C@@H](O)C/C=C\CCCCCCCC(=O)O [(9Z,12R)-12-Hydroxyoctadec-9-enoic acid] |  | 178.6 |  | 189.7 | 
13 | CCOC(=O)[C@@H](O)[C@H](O)C(=O)OCC [(-)-Diethyl-D-tartrate] |  |  |  | 153.6 | 
14 | O=C1OC[C@H](Cc2cccc(O)c2)[C@H]1Cc1cccc(O)c1 [(-)-Enterolactone] |  | 165.3 |  | 178.2 | 
15 | O=C(O[C@@H]1Cc2c(O)cc(O)cc2O[C@@H]1c1cc(O)c(O)c(O)c1)c1cc(O)c(O)c(O)c1 [(-)-Epigallocatechin gallate] |  |  |  | 212.4 | 
16 | CN1CCC[C@H]1c1cccnc1 [(-)-Nicotine] | 137.2 |  | 136.5 |  | 
17 | CNC[C@H](O)c1cccc(O)c1 [(-)-Phenylephrine hydrochloride] |  | 138.7 |  |  | 
18 | C=C(C)C(=O)OCCOC1CC2CC1C1C=CCC21 (stereo not given) [(Dicyclopentadienyloxy)ethyl methacrylate] |  |  |  | 170.7 | 
19 | O=C(N[C@H]1CN2CCC1CC2)c1cc2ccoc2cn1 [(R)-N-(Quinuclidin-3-yl)furo(2,3-C)pyridine-5-carboxamide] | 168 | 172.1 | 168.1 | 181 | 
20 | O=c1[nH]c(=O)n([C@H]2CCCO2)cc1F [(R)-Tegafur] |  | 142.2 |  |  | 

Row | Structure (SMILES) | collision cross section in nitrogen [1] [Å²] | collision cross section in nitrogen [2] [Å²] | collision cross section in nitrogen [3] [Å²] | collision cross section in nitrogen [4] [Å²] | collision cross section in nitrogen [5] [Å²]
21 | CCCCCCCC/C=C\CCCCCCCCN [(Z)-9-Octadecenylamine] | 180.2 |  |  |  | 
22 | CCCC/C=C\CCCCCCCCCC=O [(Z)-11-Hexadecenal] |  | 163.6 |  |  | 
23 | CCCCCC/C=C\CCCCCCCC(=O)O [(Z)-Hexadec-9-enoic acid] |  | 168.4 |  |  | 
24 | O=C(NC(=O)c1cc(F)c(F)cc1Cl)Nc1cc(F)ccc1N1CCC(C(=O)O)CC1 [AVE2865] | 202.4 | 196.2 | 202.7 | 195.9 | 
25 | O=C(O)c1ccc2c(c1)nc(C(=O)NC1CCN(C3CC3)CC1)n2Cc1cc(-c2ccc(Cl)s2)on1 [AVE3247] | 228.8 | 249.7 | 228.1 | 242.2 | 
26 | CC[C@H](NC(=O)c1cc(F)ccc1NS(=O)(=O)c1cccc2cccnc12)c1ccccc1 [AVE3295] | 197.4 | 203 | 198 | 205.8 | 
27 | NCc1cccc(C2CCN(C(=O)c3ccc(C#Cc4ccccc4F)o3)CC2)c1 [AVE5638] | 192.4 |  | 192.1 |  | 
28 | CCOC(=O)O[C@H](C)OC(=O)c1ccc2c(c1)cc(C(=O)NC1CCN(C(C)C)CC1)n2Cc1cc(-c2ccc(Cl)s2)on1 [AVE6324] | 267.7 | 269.8 | 268 | 276.4 | 
29 | CCCOc1sc(C(=O)N2CCC(c3cc(CN)ccc3F)CC2)c(C)c1Br [AVE8923] |  |  | 197.2 | 204.9 | 
30 | O=C(O)c1ccccc1-n1cc(C(=O)O)c(=O)c2cc(Nc3c(F)cc(F)cc3Cl)c(Cl)cc21 [AVE9423] | 210.8 | 216.1 | 210.6 | 223.5 | 
31 | COP(=O)(NC(C)=O)SC (stereo not given) [Acephate] |  | 133.9 |  | 141 | 
32 | CC1=CC(=O)NS(=O)(=O)O1 [Acesulfame potassium] |  | 125.1 |  |  | 
33 | CC(=O)Nc1ccc(O)cc1 [Acetaminophen] |  | 132.5 |  |  | 
34 | C/C(=N\C#N)N(C)Cc1ccc(Cl)nc1 [Acetamiprid] | 154.6 | 149.1 | 155.1 | 157.7 | 
35 | CC(=O)Nc1nnc(S(N)(=O)=O)s1 [Acetazolamide] |  | 137.8 |  |  | 
36 | CC(=O)CC(=O)Nc1ccccc1 [Acetoacetanilide] |  | 138 |  |  | 
37 | CCOCN(C(=O)CS(=O)(=O)O)c1c(C)cccc1CC [Acetochlor ESA] |  | 172.3 |  |  | 
38 | CCCCOC(=O)CC(CC(=O)OCCCC)(OC(C)=O)C(=O)OCCCC [Acetyl tributyl citrate] |  |  |  | 207 | 
39 | CC(=O)O[C@H](CC(=O)[O-])C[N+](C)(C)C [Acetyl-L-carnitine hydrochloride] | 143.9 |  |  |  | 
40 | Nc1c(S(=O)(=O)O)cc(Nc2ccccc2)c2c1C(=O)c1ccccc1C2=O [Acid Blue 25] | 190.2 | 191.1 |  |  | 

Row | Structure (SMILES) | collision cross section in nitrogen [1] [Å²] | collision cross section in nitrogen [2] [Å²] | collision cross section in nitrogen [3] [Å²] | collision cross section in nitrogen [4] [Å²] | collision cross section in nitrogen [5] [Å²]
41 | Nc1ccc2cc(S(=O)(=O)O)cc(O)c2c1N=Nc1ccccc1C(F)(F)F [Acid Red 337] | 191.7 | 195.6 |  |  | 
42 | C=CC(=O)OCCOC(=O)CCC(=O)O [Acryloyloxyethyl succinate] |  |  |  | 145.9 | 
43 | CC(=O)Nc1ccc(CC(=O)O)cc1 [Actarit] | 143.7 |  |  | 143.5 | 
44 | Nc1ncnc2[nH]cnc12 [Adenine] | 125.2 | 120.9 | 124.4 |  | 
45 | CCCSc1ccc2[nH]c(NC(=O)OC)nc2c1 [Albendazole] | 166 |  | 166.9 |  | 160.4
46 | CNC(=O)ON=CC(C)(C)S(C)=O (stereo not given) [Aldicarb sulfoxide] |  |  |  | 147.4 | 
47 | CNC(=O)ON=CC(C)(C)SC [Aldicarb] |  |  |  | 147.5 | 
48 | C=CCO/N=C(\CCC)C1C(=O)CC(C)(C)C(C(=O)OC)C1=O (stereo not given) [Alloxydim sodium] | 175.7 | 177.7 | 175.7 | 179.4 | 
49 | O=C1c2cccc(O)c2C(=O)c2c(O)cc(CO)cc21 [Aloe-emodin] |  | 157.1 |  |  | 
50 | CCNc1nc(NC(C)C)nc(SC)n1 [Ametryn] | 155.5 |  | 155.2 |  | 
51 | CNC(=O)Oc1ccc(N(C)C)c(C)c1 [Aminocarb] | 152.2 |  | 151.6 | 155.8 | 
52 | CCC1(c2ccc(N)cc2)CCC(=O)NC1=O (stereo not given) [Aminoglutethimide] |  | 158.8 |  |  | 
53 | Nc1nc(N)c2nc(CNc3ccc(C(=O)N[C@@H](CCC(=O)O)C(=O)O)cc3)cnc2n1 [Aminopterin] |  | 199.5 |  |  | 
54 | CCCCc1oc2ccccc2c1C(=O)c1cc(I)c(OCCN(CC)CC)c(I)c1 [Amiodarone hydrochloride] | 224.2 |  | 223.8 | 231.6 | 224
55 | COP(=S)(NC(C)C)Oc1ccc(C)cc1[N+](=O)[O-] (stereo not given) [Amiprofos-methyl] |  | 164.8 |  | 172.4 | 
56 | CN(C)CCC=C1c2ccccc2CCc2ccccc21 [Amitriptyline hydrochloride] | 167.5 |  | 166.8 | 175.7 | 
57 | Nc1nc[nH]n1 [Amitrole] |  | 113.2 |  |  | 
58 | CCOP(=S)(S)OCC [Ammonium diethyl dithiophosphate] |  | 134.4 |  |  | 
